Measurements from patent publication EP0052437A1, “Antibacterial compounds, processes for their preparation and compositions containing them” (BEECHAM GROUP PLC, priority 1980, dated 1982).
≈ marks a conversion by molar mass, not a printed value.

Key:
Format in all cases: cell-based
[1] = test system: M. hyosynoviae ATCC 25591; assay: Anti-mycoplasmal in vitro MIC; details: 144 h, Friis broth solidified with 0.9% agarose, 6 days incubation at 37°C
[2] = test system: M. gallisepticum S6; assay: Anti-mycoplasmal in vitro MIC; details: Mycoplasmoides gallisepticum, 144 h, Friis broth solidified with 0.9% agarose, 6 days incubation at 37°C
[3] = test system: M. bovigenitalium ATCC 14173; assay: Anti-mycoplasmal in vitro MIC; details: 144 h, Friis broth solidified with 0.9% agarose, 6 days incubation at 37°C
[4] = test system: M. suipneumoniae NCTC 10110; assay: Anti-mycoplasmal in vitro MIC; details: Mesomycoplasma hyopneumoniae, NCTC10110, 144 h, Friis broth solidified with 0.9% agarose, 6 days incubation at 37°C
[5] = test system: M. suipneumoniae UCD 1; assay: Anti-mycoplasmal in vitro MIC; details: Mesomycoplasma hyopneumoniae, UCD1, 144 h, Friis broth solidified with 0.9% agarose, 6 days incubation at 37°C
[6] = test system: M. suipneumoniae Str. 11; assay: Anti-mycoplasmal in vitro MIC; details: Mesomycoplasma hyopneumoniae, 144 h, Friis broth solidified with 0.9% agarose, 6 days incubation at 37°C
[7] = test system: M. suipneumoniae MS 16; assay: Anti-mycoplasmal in vitro MIC; details: Mesomycoplasma hyopneumoniae, MS16, 144 h, Friis broth solidified with 0.9% agarose, 6 days incubation at 37°C
[8] = test system: M. hyorhinis ATCC 23234; assay: Anti-mycoplasmal in vitro MIC; details: Mesomycoplasma hyorhinis, ATCC23234, 144 h, Friis broth solidified with 0.9% agarose, 6 days incubation at 37°C
[9] = test system: Staph. aureus Russell; assay: Human bacteria MIC; details: Staphylococcus aureus, nutrient agar with 5% chocolated horse blood, 18 hours at 37°C
Method: (§1) The values were determined by serial dilutions in nutrient agar with 5% chocolated horse blood after incubations for 18 hours at 37 °C.

[10] = test system: Strep. 641848-C; assay: Human bacteria MIC; details: nutrient agar with 5% chocolated horse blood, 18 hours at 37°C
Method: as §1

[11] = test system: Staph. aureus Oxford; assay: Human bacteria MIC; details: Staphylococcus aureus, nutrient agar with 5% chocolated horse blood, 18 hours at 37°C
Method: as §1

[12] = test system: Ps. aeruginosa NCTC 10662; assay: Human bacteria MIC; details: Pseudomonas aeruginosa, NCTC10662, nutrient agar with 5% chocolated horse blood, 18 hours at 37°C
Method: as §1

[13] = test system: E. Coli NCTC 10418; assay: Human bacteria MIC; details: Escherichia coli, NCTC10418, nutrient agar with 5% chocolated horse blood, 18 hours at 37°C
Method: as §1

[14] = test system: Pasteurella multocida 1633; assay: Human bacteria MIC; details: nutrient agar with 5% chocolated horse blood, 18 hours at 37°C
Method: as §1

[15] = test system: P. mirabilis 889; assay: Human bacteria MIC; details: Proteus mirabilis, nutrient agar with 5% chocolated horse blood, 18 hours at 37°C
Method: as §1

[16] = test system: K. aerogenes A; assay: Human bacteria MIC; details: Klebsiella aerogenes, nutrient agar with 5% chocolated horse blood, 18 hours at 37°C
Method: as §1

[17] = test system: Staph. aureus W2827; assay: Human bacteria MIC; details: Staphylococcus aureus, nutrient agar with 5% chocolated horse blood, 18 hours at 37°C
Method: as §1

[18] = test system: M. dispar NCTC 10125; assay: Anti-mycoplasmal in vitro MIC; details: 144 h, Friis broth solidified with 0.9% agarose, 6 days incubation at 37°C
[19] = test system: M. suipneumoniae HK(2); assay: Anti-mycoplasmal in vitro MIC; details: Mesomycoplasma hyopneumoniae, 144 h, Friis broth solidified with 0.9% agarose, 6 days incubation at 37°C
[20] = test system: Bord. bronchiseptica BO8; assay: Veterinary bacteria MIC; details: Bordetella bronchiseptica, Diagnostic Sensitivity Test Agar, 18 hours at 37°C
Method: (§2) The values were determined using a two fold serial dilutions.in Diagnostic Sensitivity Test Agar with an inoculum of 10^4 organisms and incubation for 18 hours at 37°C.

[21] = test system: Staph. aureus Oxford; assay: Veterinary bacteria MIC; details: Staphylococcus aureus, Diagnostic Sensitivity Test Agar, 18 hours at 37°C
Method: as §2

[22] = test system: Strep. dysgalactiae SPD1; assay: Veterinary bacteria MIC; details: Streptococcus dysgalactiae, Diagnostic Sensitivity Test Agar, 18 hours at 37°C
Method: as §2

[23] = test system: Strep. agalactiae SPA1; assay: Veterinary bacteria MIC; details: Streptococcus agalactiae, Diagnostic Sensitivity Test Agar, 18 hours at 37°C
Method: as §2

[24] = test system: Past. multocida PA2; assay: Veterinary bacteria MIC; details: Pasteurella multocida, Diagnostic Sensitivity Test Agar, 18 hours at 37°C
Method: as §2

[25] = test system: Erysipelothrix rhusiopathiae NCTC 8163; assay: Veterinary bacteria MIC; details: NCTC8163, Diagnostic Sensitivity Test Agar, 18 hours at 37°C
Method: as §2

[26] = test system: Corynebacterium pyogenes CY1; assay: Veterinary bacteria MIC; details: Trueperella pyogenes, Diagnostic Sensitivity Test Agar, 18 hours at 37°C
Method: as §2

[27] = test system: Strep. uberis SPU1; assay: Veterinary bacteria MIC; details: Streptococcus uberis, Diagnostic Sensitivity Test Agar, 18 hours at 37°C
Method: as §2

[28] = test system: S. typhimurium S18; assay: Veterinary bacteria MIC; details: Salmonella enterica, Diagnostic Sensitivity Test Agar, 18 hours at 37°C
Method: as §2

[29] = test system: E. Coli NCTC 10418; assay: Veterinary bacteria MIC; details: Escherichia coli, NCTC10418, Diagnostic Sensitivity Test Agar, 18 hours at 37°C
Method: as §2

[30] = test system: Strep. suis (group D) SPS11; assay: Veterinary bacteria MIC; details: Streptococcus suis, Diagnostic Sensitivity Test Agar, 18 hours at 37°C
Method: as §2

[31] = test system: E. Coli E1; assay: Veterinary bacteria MIC; details: Escherichia coli, Diagnostic Sensitivity Test Agar, 18 hours at 37°C
Method: as §2

[32] = test system: Past. haemolytica PA5; assay: Veterinary bacteria MIC; details: Mannheimia haemolytica, Diagnostic Sensitivity Test Agar, 18 hours at 37°C
Method: as §2

[33] = test system: Bord. bronchiseptica BO9; assay: Veterinary bacteria MIC; details: Bordetella bronchiseptica, Diagnostic Sensitivity Test Agar, 18 hours at 37°C
Method: as §2

[34] = test system: Past. multocida PA1; assay: Veterinary bacteria MIC; details: Pasteurella multocida, Diagnostic Sensitivity Test Agar, 18 hours at 37°C
Method: as §2

[35] = test system: Staph. aureus 152; assay: Veterinary bacteria MIC; details: Staphylococcus aureus, Diagnostic Sensitivity Test Agar, 18 hours at 37°C
Method: as §2

[36] = test system: S. dublin S7; assay: Veterinary bacteria MIC; details: Salmonella enterica, Diagnostic Sensitivity Test Agar, 18 hours at 37°C
Method: as §2

[37] = test system: Staph. aureus B4; assay: Veterinary bacteria MIC; details: Staphylococcus aureus, Diagnostic Sensitivity Test Agar, 18 hours at 37°C
Method: as §2

| Compound | MIC [1] [µg/mL] | MIC [2] [µg/mL] | MIC [3] [µg/mL] | MIC [4] [µg/mL] | MIC [5] [µg/mL] | MIC [6] [µg/mL] | MIC [7] [µg/mL] | MIC [8] [µg/mL] | MIC [9] [µg/mL] | MIC [10] [µg/mL] | MIC [11] [µg/mL] | MIC [12] [µg/mL] | MIC [13] [µg/mL] | MIC [14] [µg/mL] | MIC [15] [µg/mL] | MIC [16] [µg/mL] | MIC [17] [µg/mL] | MIC [18] [µg/mL] | MIC [19] [µg/mL] | MIC [20] [µg/mL] | also measured |
| --- | --- | --- | --- | --- | --- | --- | --- | --- | --- | --- | --- | --- | --- | --- | --- | --- | --- | --- | --- | --- | --- |
| C/C(=C\C(=O)OC(C)c1ccc(C#N)cc1)CC1OCC(CC2OC2C(C)C(C)O)C(O)C1O (stereo not drawn) [Example 4, 1-(p-Cyanophenyl)ethyl monate A] | 0.1 (≈ 0.211 µM) | 10 (≈ 21.1 µM) | 0.025 (≈ 0.0528 µM) | 2.5 (≈ 5.28 µM) | 1 (≈ 2.11 µM) | 1 (≈ 2.11 µM) | 1 (≈ 2.11 µM) | 0.5 (≈ 1.06 µM) | 5 (≈ 10.6 µM) | 2.5 (≈ 5.28 µM) | 2.5 (≈ 5.28 µM) | > 100 | > 100 | 10 (≈ 21.1 µM) | > 100 | > 100 | 5 (≈ 10.6 µM) | 0.5 (≈ 1.06 µM) | 2.5 (≈ 5.28 µM) | 80 (≈ 169 µM) | MIC [21]: 2.5 µg/mL (≈ 5.28 µM); MIC [22]: 1.25 µg/mL (≈ 2.64 µM); MIC [23]: 10 µg/mL (≈ 21.1 µM); MIC [24]: < 0.019 µg/mL; MIC [25]: 40 µg/mL (≈ 84.5 µM); MIC [26]: > 80 µg/mL; MIC [27]: 1.25 µg/mL (≈ 2.64 µM); MIC [28]: > 80 µg/mL; MIC [29]: > 80 µg/mL; MIC [30]: 20 µg/mL (≈ 42.2 µM); MIC [31]: > 80 µg/mL; MIC [32]: 40 µg/mL (≈ 84.5 µM); MIC [33]: 20 µg/mL (≈ 42.2 µM); MIC [34]: 10 µg/mL (≈ 21.1 µM); MIC [35]: 5 µg/mL (≈ 10.6 µM); MIC [36]: > 80 µg/mL; MIC [37]: 10 µg/mL (≈ 21.1 µM) |
| C/C(=C\C(=O)OCc1ccc(C#N)cc1)CC1OCC(CC2OC2C(C)C(C)O)C(O)C1O (stereo not drawn) [Example 3, p-Cyanobenzyl monate A] | < 0.01 | 0.25 (≈ 0.544 µM) | ≤ 0.01 | 0.25 (≈ 0.544 µM) | 0.25 (≈ 0.544 µM) | 0.1 (≈ 0.218 µM) | 0.1 (≈ 0.218 µM) | 0.1 (≈ 0.218 µM) | 0.5 (≈ 1.09 µM) | 0.25 (≈ 0.544 µM) | 0.25 (≈ 0.544 µM) | > 100 | 50 (≈ 109 µM) | 0.5 (≈ 1.09 µM) | 50 (≈ 109 µM) | 50 (≈ 109 µM) | 0.5 (≈ 1.09 µM) | 0.05 (≈ 0.109 µM) | 0.25 (≈ 0.544 µM) | 20 (≈ 43.5 µM) | MIC [21]: 0.312 µg/mL (≈ 0.679 µM); MIC [22]: 0.156 µg/mL (≈ 0.339 µM); MIC [23]: 1.25 µg/mL (≈ 2.72 µM); MIC [24]: 0.156 µg/mL (≈ 0.339 µM); MIC [25]: 40 µg/mL (≈ 87 µM); MIC [26]: > 80 µg/mL; MIC [27]: 0.07 µg/mL (≈ 0.152 µM); MIC [28]: 80 µg/mL (≈ 174 µM); MIC [29]: 80 µg/mL (≈ 174 µM); MIC [30]: 2.5 µg/mL (≈ 5.44 µM); MIC [31]: 80 µg/mL (≈ 174 µM); MIC [32]: 2.5 µg/mL (≈ 5.44 µM); MIC [33]: 10 µg/mL (≈ 21.8 µM); MIC [34]: 0.625 µg/mL (≈ 1.36 µM); MIC [35]: 0.312 µg/mL (≈ 0.679 µM); MIC [36]: > 80 µg/mL; MIC [37]: 0.625 µg/mL (≈ 1.36 µM) |
| C/C(=C\C(=O)OCc1cc(C#N)cc(C#N)c1)CC1OCC(CC2OC2C(C)C(C)O)C(O)C1O (stereo not drawn) [Example 6, 3,5-Dicyanobenzyl monate A] | 0.1 (≈ 0.206 µM) | 2.5 (≈ 5.16 µM) | 0.025 (≈ 0.0516 µM) | 0.1 (≈ 0.206 µM) | 0.1 (≈ 0.206 µM) | 0.05 (≈ 0.103 µM) | 0.05 (≈ 0.103 µM) | 0.05 (≈ 0.103 µM) | 5 (≈ 10.3 µM) | 1 (≈ 2.06 µM) | 2.5 (≈ 5.16 µM) | > 100 | > 100 | 2.5 (≈ 5.16 µM) | 100 (≈ 206 µM) | > 100 | 5 (≈ 10.3 µM) | 0.05 (≈ 0.103 µM) | 0.1 (≈ 0.206 µM) | 80 (≈ 165 µM) | MIC [21]: 5 µg/mL (≈ 10.3 µM); MIC [22]: 0.625 µg/mL (≈ 1.29 µM); MIC [23]: 0.625 µg/mL (≈ 1.29 µM); MIC [24]: 0.625 µg/mL (≈ 1.29 µM); MIC [25]: 80 µg/mL (≈ 165 µM); MIC [26]: > 80 µg/mL; MIC [27]: 0.312 µg/mL (≈ 0.644 µM); MIC [28]: > 80 µg/mL; MIC [29]: > 80 µg/mL; MIC [30]: 40 µg/mL (≈ 82.6 µM); MIC [31]: > 80 µg/mL; MIC [32]: 10 µg/mL (≈ 20.6 µM); MIC [33]: 40 µg/mL (≈ 82.6 µM); MIC [34]: 5 µg/mL (≈ 10.3 µM); MIC [35]: 5 µg/mL (≈ 10.3 µM); MIC [36]: > 80 µg/mL; MIC [37]: 5 µg/mL (≈ 10.3 µM) |
